Data on three molecules can be found in patent publication EP1561465A2, “Methods of use of fluoroquinolone compounds against bacteria” (LG Life Sciences, Ltd., priority 1999, dated 2001).

Converted amounts (≈) assume the structure as drawn. Where two headings read alike, the source gives them in different places.

The test system of one assay is Pseudomonas aeruginosa. As to the kind of experiment: MIC by agar dilution (NCCLS), 322 nosocomial Gram negative isolates, Athens 1998. Format: cell-based. As to conditions: n = 57 isolates. (In agar dilution the substance is mixed into plates at graded concentrations.)
The next assay has as its system Klebsiella pneumoniae. The description is as above. The settings on record: Klebsiella pneumoniae; n = 56 isolates. Format: cell-based.
In a further assay the test system is Enterobacter spp. The assay is described as above. The class given is cell-based. As to conditions: Enterobacter, n = 57 isolates; for MIC50: read-out: MIC50; for MIC90: read-out: MIC90.
A further assay has as its system Proteus mirabilis. The assay is described as above. Format: cell-based. The settings on record: Proteus mirabilis; n = 57 isolates.
A further assay relates to Acinetobacter spp. Described as above. The class given is cell-based. As to conditions: Acinetobacter; n = 38 strains.
The next assay has as its system Escherichia coli. The assay is described as above. The class given is cell-based. The settings on record: n = 57 isolates.
The test system of assay [1] is Shigella spp. Description: MIC by agar dilution (NCCLS M7-A4), 288 enteropathogenic isolates, eight quinolones. Format: cell-based. As to conditions: Shigella spp. (n = 21).
Assay [2] has as its system Aeromonas spp. The assay is described as above. The settings on record: Aeromonas spp. (n = 16). Format: cell-based.
Assay [3] concerns Aeromonas spp. Description: MIC by agar dilution (NCCLS M7-A4), 288 enteropathogenic isolates, gemifloxacin and 15 other antimicrobials. Format: cell-based. The settings on record: Aeromonas spp. N= 16.
Assay [4] deals with Salmonella spp. Description: MIC by agar dilution (NCCLS M7-A4), 288 enteropathogenic isolates, eight quinolones. The class given is cell-based. The settings on record: for MIC: ciprofloxacin MIC ≥[…], read-out: MIC.
In assay [5] the test system is Yersinia enterocolitica. Description: MIC by agar dilution (NCCLS M7-A4), 288 enteropathogenic isolates, gemifloxacin and 15 other antimicrobials. The class given is cell-based. The settings on record: Yersinia enterocolitica N= 22.
The test system of assay [6] is Shigella spp. The description is as above. As to conditions: Shigella spp. N= 21. The class given is cell-based. Here is the method:
[A. hydrophila (12), and A. sobria (4)], and 91 Campylobacter jejuni. […] The strains were stored in skimmed-milk at -80 °C until studied.
The plates were incubated aerobically at 35 °C for 24 h, except for Campylobacter jejuni, where a microaerophilic atmosphere was obtained by using Campy Pack (Becton Dickinson, Cockeysville, MD, USA), and incubation was for 48 h. All organisms were tested with an inoculum of ≅ 10^4 cfu/spot. MICs were defined as the lower antibiotic concentration with no visible growth.

For assay [7], the system named is Campylobacter jejuni. The description is as above. As to conditions: Campylobacter jejuni.
The test system of assay [8] is Salmonella spp. Described as above. Format: cell-based.
For assay [9], the system named is Yersinia enterocolitica. Description: MIC by agar dilution (NCCLS M7-A4), 288 enteropathogenic isolates, eight quinolones. The class given is cell-based. The settings on record: Yersinia enterocolitica (n = 22).
Assay [10] relates to Hafnia alvei. As to the kind of experiment: MIC by agar dilution (NCCLS M7-A4), 288 enteropathogenic isolates, gemifloxacin and 15 other antimicrobials. The class given is cell-based. As to conditions: Hafnia alvei N= 32.
The subject of assay [11] is Hafnia alvei. Description: MIC by agar dilution (NCCLS M7-A4), 288 enteropathogenic isolates, eight quinolones. Format: cell-based. The settings on record: Hafnia alvei (n = 32).
The test system of assay [12] is Campylobacter jejuni. As to the kind of experiment: MIC by agar dilution (NCCLS M7-A4), 5% sheep blood, microaerophilic 48 h. Format: cell-based. The settings on record: Campylobacter jejuni (n=91).
[13] abbreviates: 24 h, read-out: MIC (mg/L) Range.

One may read the MIC50 as an inhibitory concentration at the 50% level, which refers to growth in some studies and to a panel of isolates in others. For orientation: MIC90 means the lowest concentration that inhibits either 90% of growth or 90% of the strains tested, depending on the study. As for `CO/N=C(\C(=O)N[C@@H]1C(=O)N2C(C(=O)[O-])=C(C[N+]3(C)CCCC3)CS[C@H]12)c1csc(N)n1` [Cefepime], the MIC50 amounted to 8 µg/mL (≈ 16.6 µM) in the assay with Pseudomonas aeruginosa; 0.06 µg/mL (≈ 0.125 µM) in the assay on Klebsiella pneumoniae; 0.125 µg/mL (≈ 0.26 µM) in the assay with Enterobacter spp.; 0.125 µg/mL (≈ 0.26 µM) in the assay with Proteus mirabilis; 16 µg/mL (≈ 33.3 µM) against Acinetobacter spp.. The MIC90 in the assay on Pseudomonas aeruginosa is over 64 µg/mL; against Klebsiella pneumoniae, 8 µg/mL (≈ 16.6 µM); in the assay with Enterobacter spp., 16 µg/mL (≈ 33.3 µM); with Proteus mirabilis it was 8 µg/mL (≈ 16.6 µM); in the assay on Acinetobacter spp., 64 µg/mL (≈ 133 µM).

On to `CO[C@@]1(NC(=O)Cc2cccs2)C(=O)N2C(C(=O)O)=C(COC(N)=O)CS[C@@H]21` [Cefoxitin], for which the MIC50 with Klebsiella pneumoniae was 4 µg/mL (≈ 9.36 µM); in the assay on Enterobacter spp., over 64 µg/mL; against Proteus mirabilis, 4 µg/mL (≈ 9.36 µM); with Escherichia coli (Escherichia coli) it was 4 µg/mL (≈ 9.36 µM); against Acinetobacter spp., over 64 µg/mL. Moreover, the MIC90 with Klebsiella pneumoniae is 16 µg/mL (≈ 37.4 µM); with Enterobacter spp., over 64 µg/mL; in the assay with Proteus mirabilis it was 16 µg/mL (≈ 37.4 µM); against Escherichia coli (Escherichia coli) it was 16 µg/mL (≈ 37.4 µM); in the assay with Acinetobacter spp., over 64 µg/mL. The “MIC Range” value against Escherichia coli fell in the range of 2 to 32 µg/mL.

Take `CCn1cc(C(=O)O)c(=O)c2cc(F)c(N3CCNCC3)cc21` [Norfloxacin, norfloxacin]: the “% Susceptible” value in the assay on Shigella spp. [1] was found to be 100%; in the assay on Aeromonas spp. [2], 100%; in the assay with Salmonella spp. [4] (Salmonella spp. (n = 106)), 100%; with Yersinia enterocolitica [9] it was 100%; with Hafnia alvei [11] it was 100%; in the assay with Campylobacter jejuni [12], 31.86%. Moreover, the MIC50 with Shigella spp. [1] was 0.06 µg/mL (≈ 0.188 µM); against Aeromonas spp. [2] it was at most 0.015 µg/mL; in the assay with Salmonella spp. [4] (Salmonella spp. (n = 106)), 0.06 µg/mL (≈ 0.188 µM); against Yersinia enterocolitica [9], 0.06 µg/mL (≈ 0.188 µM); in the assay with Hafnia alvei [11], 0.03 µg/mL (≈ 0.0939 µM); in the assay with Campylobacter jejuni [12], 128 µg/mL (≈ 401 µM). The MIC90 was 0.06 µg/mL (≈ 0.188 µM) against Shigella spp. [1]; 0.03 µg/mL (≈ 0.0939 µM) against Aeromonas spp. [2]; 0.5 µg/mL (≈ 1.57 µM) against Salmonella spp. [4] (Salmonella spp. (n = 106)); 0.06 µg/mL (≈ 0.188 µM) with Yersinia enterocolitica [9]; 0.03 µg/mL (≈ 0.0939 µM) in the assay on Hafnia alvei [11]; over 128 µg/mL in the assay on Campylobacter jejuni [12]. Also, the “MIC Range” value against Shigella spp. [1] is 0.03 to 0.06 µg/mL; against Aeromonas spp. [2], at most 0.015 to 0.12 µg/mL; in the assay on Salmonella spp. [4] (Salmonella spp. (n = 106)), 0.06 to 4 µg/mL; against Yersinia enterocolitica [9], 0.06 to 0.5 µg/mL; in the assay with Hafnia alvei [11], at most 0.015 to 0.03 µg/mL. Besides, the “MIC (mg/L) Range” value in the assay with Aeromonas spp. [3] was at most 0.015 to 0.12 mg/L; with Salmonella spp. [8] (Salmonella spp. N= 106) it was 0.06 to 4 mg/L. Also, the MIC was at most 0.015 mg/L in the assay with Aeromonas spp. [3] (read-out: MIC (mg/L) 50%); 0.03 mg/L (≈ 0.0939 µM) in the assay with Aeromonas spp. [3] (read-out: MIC (mg/L) 90%); 4 µg/mL (≈ 12.5 µM) with Salmonella spp. [4] (S. hadar (n = 2)); 2 µg/mL (≈ 6.26 µM) in the assay with Salmonella spp. [4] (S. newport (n = 1)); 0.5 µg/mL (≈ 1.57 µM) in the assay with Salmonella spp. [4] (S. virchow (n = 2)); 4 µg/mL (≈ 12.5 µM) in the assay with Salmonella spp. [4] (Salmonella, S. tshiongwe (n = 1)). Moreover, the MIC with Yersinia enterocolitica [5] (setting [13]) was 0.06 to 0.5 mg/L (≈ 0.188 to 1.57 µM); with Yersinia enterocolitica [5] (read-out: MIC (mg/L) 50%), 0.06 mg/L (≈ 0.188 µM); with Yersinia enterocolitica [5] (read-out: MIC (mg/L) 90%) it was 0.06 mg/L (≈ 0.188 µM); with Shigella spp. [6] (setting [13]), 0.03 to 0.06 mg/L (≈ 0.0939 to 0.188 µM); with Shigella spp. [6] (read-out: MIC (mg/L) 50%), 0.06 mg/L (≈ 0.188 µM); with Shigella spp. [6] (read-out: MIC (mg/L) 90%), 0.06 mg/L (≈ 0.188 µM). Moreover, the MIC is 128 mg/L (≈ 401 µM) in the assay with Campylobacter jejuni [7] (read-out: MIC (mg/L) 50%); over 128 mg/L in the assay on Campylobacter jejuni [7] (read-out: MIC (mg/L) 90%); 4 mg/L (≈ 12.5 µM) in the assay with Salmonella spp. [8] (S. hadar(2), isolates with MICs for ciprofloxacin ≥[…], read-out: MIC); 2 mg/L (≈ 6.26 µM) with Salmonella spp. [8] (S. newport(1), isolate with MIC for ciprofloxacin ≥[…], read-out: MIC); 0.5 mg/L (≈ 1.57 µM) in the assay with Salmonella spp. [8] (S. virchow(2), isolates with MICs for ciprofloxacin ≥[…], read-out: MIC); 4 mg/L (≈ 12.5 µM) with Salmonella spp. [8] (Salmonella, S. tshiongwe(1), isolate with MIC for ciprofloxacin ≥[…], read-out: MIC). The MIC was 0.06 mg/L (≈ 0.188 µM) in the assay on Salmonella spp. [8] (Salmonella, read-out: MIC (mg/L) 50%, Salmonella spp. N= 106); 0.5 mg/L (≈ 1.57 µM) with Salmonella spp. [8] (Salmonella, read-out: MIC (mg/L) 90%, Salmonella spp. N= 106); 0.015 to 0.03 mg/L (≈ 0.047 to 0.0939 µM) with Hafnia alvei [10] (setting [13]); 0.03 mg/L (≈ 0.0939 µM) in the assay with Hafnia alvei [10] (read-out: MIC (mg/L) 50%); 0.03 mg/L (≈ 0.0939 µM) in the assay on Hafnia alvei [10] (read-out: MIC (mg/L) 90%).
